# Where two headings read alike, the source gives them in different places.
# Key:
# [1] = MTT antiproliferative assay, HCT-116; type: cell-based, human; settings: human, HCT-116 colorectal cancer cells versus normal L02 cells; HCT-116 vs L02
# Outline: (§1)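 Cells seeded at 9 × 10^3 per well, allowed 24 h to adhere, then exposed 48 h to compound at 1, 10, 50 and 100 µM. MTT added to 2 mg/mL for 4 h, formazan dissolved in DMSO, OD read at 492 nm; inhibition calculated relative to untreated and blank wells.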
# [2] = system: HCT-116 cells; test: MTT antiproliferative assay, HCT-116; type: cell-based, human
# Outline: as §1
# [3] = MTT antiproliferative assay, HepG2; type: cell-based, human; settings: human, HepG2 liver cancer cells versus normal L02 cells; HepG2 vs L02
# Outline: as §1
# [4] = system: HepG2 cells; test: MTT antiproliferative assay, HepG2; type: cell-based, human
# Outline: as §1
# [5] = system: L02 cells; test: MTT assay on normal liver cells L02; type: cell-based; settings: Homo sapiens
# Method: The antiproliferative activity of the target compounds against a normal L02 cell line and the three different human cancer cell lines viz. colorectal (HCT-116), liver (BEL-7402) and liver (HepG2) were evaluated using a standard MTT-based colorimetric assay. All cell lines were obtained from the Key Laboratory of Natural Resources and Functional Molecules of the Changbai Mountain (Yanbian University, Jilin, China) and maintained in Dulbecco’s modified Eagle’s medium (DMEM) and RPMI Media 1640 (RPMI1640), supplemented with 10% fetal bovine serum (FBS) at 37 °C in a humidified atmosphere containing 5% CO2.
# Cells were plated in 96-well plates at appropriate densities to ensure exponential growth throughout the experimental period (9 × 10^3 cells per well) and then allowed to adhere for 24 h. Cells were then treated for 48 h with four serial concentrations (1, 10, 50 and 100 µM) of each compound. […] After 48 h of incubation, 10 µL of MTT solution was added to each well to a final concentration of 2 mg/mL. Plates were then incubated for a further 4 h. After incubation, the MTT solution was removed and 150 µL of DMSO was added to each well for coloration. The plates were shaken vigorously for 10 min at room temperature to ensure complete solubilization. The optical density (OD) was read on a microplate reader (ELx800, BioTek, Highland Park, Winooski, VT, USA) at a wavelength of 492 nm and the data were subsequently analyzed. The percentage of cell growth inhibition was calculated from the following equation: Inhibitory rate (%) = [(1 − (ODtreated-ODblank)/(ODcontrol-ODblank)] × 100.(1)
# [6] = system: HCT-116 cells; test: Cell cycle analysis by flow cytometry (PI); type: cell-based, human; settings: 24 h; for proportion of cells in the S phase: control 18.64%; for proportion of cells in the G1 phase: control 70.67%
# Method: HCT-116 cells were plated in 6-well plates (5.0 × 10^5 cells per well) and incubated at 37 °C for 24 h. Exponentially growing cells were then incubated with compound 5d at 5 and 15 µM. After 24 h, untreated cells (control) or cells treated with compound 5d were centrifuged at 1000 rpm for 10 min and then fixed in 70% ethanol at −20 °C for at least 24 h. The cells were subsequently resuspended in phosphate-buffered saline (PBS) containing 0.1 mg/mL of RNase A and 5 µg/mL propidium iodide (PI). The cellular DNA content for the cell cycle distribution analysis was measured by flow cytometry using a FACSCalibur flow cytometer with Cell Quest software (Becton-Dickinson, Franklin Lakes, NJ, USA), plotting at least 30,000 events per sample. The percentage of cells in the G1, S and G2 phases of the cell cycle were determined using the ModFit LT version 4.0 software package (Verity Software, Topsham, ME, USA).
# [7] = system: Cyclin E1; test: Western blot, cyclin E1 in HCT-116 cells; type: cell-based, human; settings: HCT-116, 5, 10 and 15 μM, 24 h, concentration-dependent
# Method: (§2) HCT-116 cells were cultured with different concentrations of compound 5d for 24 h. Then, the floating cells was collected and washed two times with ice cold PBS. The pellet was resuspended in lysis buffer. After the cells were lysed on ice for 20 min, lysates were centrifuged at 12,000 rpm at 4 °C for 15 min. The protein concentration in the supernatant was determined using BCA protein assay reagents. Equal amounts of protein (50 μg) were resolved using sodium dodecyl sulphate-polyacrylamide gel electrophoresis (SDS-PAGE) (8−12% acrylamide gels) and transferred to a PVDF Hybond-P membrane. Membranes were blocked with PBS containing 5% non-fat milk for 1 h at room temperature. Membranes were then incubated with primary antibodies against Cyclin A (ENT1167, Elabscience, Wuhan, China), Cyclin E1 (ENT1176, Elabscience, Wuhan, China), Cyclin B1 (ENT1169, Elabscience, Wuhan, China) and β-actin (ENM0028, Elabscience, Wuhan, China), with gentle rotation overnight at 4 °C. Membranes were next incubated with fluorescent secondary antibodies for 2 h. Proteins were detected by electrochemiluminescence (Bio-Rad, Hercules, CA, USA).
# [8] = system: Cyclin B1; test: Western blot, cyclin B1 in HCT-116 cells; type: cell-based, human; settings: HCT-116, 5, 10 and 15 μM, 24 h, concentration-dependent
# Method: as §2
# [9] = IC50 on normal cells (L02)/IC50 on cancer cells
smiles,measurement,setting,value
"Cc1ccc(-n2cc(CNC(=O)COC(=O)[C@]3(C)CCC[C@@]4(C)[C@@H]5CC[C@@]6(C)C[C@]5(CC[C@@H]43)CC6=O)nn2)cc1 [Compound 5d, 2-oxo-2-(((1-(p-tolyl)-1H-1,2,3-triazol-4-yl)methyl)amino)ethyl(4R,4aS,6aR,9S,11aR,11bS)-4,9,11b-trimethyl-8-oxotetradecahydro-6a,9-methanocyclohepta[a]naphthalene-4-carboxylate]",selectivity ratio at 48 h,[1],38.2
same,inhibition at 100 µM,"[2]; Homo sapiens, HCT-116, 100 μM, 48 h, MTT, mean ± SD, n=3, read-out: % Growth Inhibition at 100 μM HCT-116",84.6 ± 0.96%
same,IC50,"[2]; Homo sapiens, HCT-116, 48 h, MTT, mean ± SD, n=3",5.38 ± 0.26 µM
same,Selectivity Index HCT-116,[2]; [9],29.93
same,fold more active than 5-FU,[2]; against HCT-116 cells,4.6 fold
same,selectivity ratio at 48 h,[3],22
same,inhibition at 100 µM,"[4]; Homo sapiens, HepG2, 100 μM, 48 h, MTT, mean ± SD, n=3, read-out: % Growth Inhibition at 100 μM HepG2",82.8 ± 0.86%
same,IC50,"[4]; Homo sapiens, HepG2, 48 h, MTT, mean ± SD, n=3",8.92 ± 0.44 µM
same,Selectivity Index HepG2,[4]; [9],18.05
same,fold more active than 5-FU,[4]; against HepG2 cells,2.6 fold
same,IC50,"[5]; normal cell line, Table 3, read-out: (IC50, μM) L02",161 ± 1.96 µM
same,IC50,"[5]; normal liver cells, 48 h, MTT, Table 2, read-out: IC50 Values (μM) L02",> 100 µM
same,proportion of cells in the S phase,[6]; 5 μM,25.70%
same,proportion of cells in the G1 phase,[6]; 5 μM,51.67%
same,proportion of cells in the S phase,[6]; 15 μM,42.31%
same,proportion of cells in the G1 phase,[6]; 15 μM,41.32%
same,cyclin E1 protein level,[7],decreased
same,cyclin B1 protein level,[8],increasing

# Reference: paper PMC6337650 (Molecules, 2018)
